AC50 data for 27 compounds are collected here from patent publication US10633350B2, “Diphenyl derivatives and uses thereof” (NOVARTIS AG, priority 2017, dated 2020).

Read-outs that look alike come from different tables or passages of the source.

Assay [1] has as its system FoxO3a. Put plainly: FoxO3a inhibition assay (GFP-FoxO3a nuclear to cytoplasmic translocation) in U2OS GFP-FoxO3a H212R reporter cells. The note with it: serum starved overnight, 30 minutes compound treatment, ratio of nuclear to cytosolic GFP intensity, AC50 = concentration that results in 50% activation or inhibition, read-out: FoxO AC50. The class given is cell-based. Here is the method:
(§1) Phosphorylation of Akt on S473 and FoxO3a nuclear to cytoplasmic translocation were used as readouts of PI3K/Akt/mTOR pathway activation downstream of growth factor signaling.
(§2) Reporter cell line. U2OS GFP-FoxO3a H212R reporter cell line was established by transducing U2OS cells with the retroviral plasmid pLEGFP-C1 containing FoxO3a H212R transgene and selecting for G418 resistant clones.
(§3) Reporter assay. U2OS GFP-FoxO3a H212R cells were plated in 384-well plates at 4000 cells per well in 30 microliters of McCoy's 5A medium containing 10% FBS. On day 1 the cells were washed with serum free medium and serum starved overnight. On day 2 the cells were treated with different doses of the compounds for 30 minutes, fixed with 4% Paraformaldehyde for 1 hour and stained with Phospho-AKT (Ser473) antibody (Cell Signaling Technology, catalog #4060) overnight at 4° C. After nuclei staining with Hoechst 33342 (Life Technologies, catalog # H3570) the plates were imaged with InCell 2000 (GE Healthcare Bio-Sciences). FoxO3a inhibition activity is calculated as the ratio of nuclear to cytosolic GFP intensity in percent. Akt activation is measured as the total cellular intensity of Phospho-Akt antibody staining in percent. DMSO control is set as 0% activity.

The subject of assay [2] is Akt. In words: Akt activation assay (Phospho-AKT (Ser473) antibody staining) in U2OS GFP-FoxO3a H212R reporter cells. Format: cell-based. Conditions: serum starved overnight, 30 minutes compound treatment, total cellular intensity of Phospho-Akt (Ser473) antibody staining, AC50 = concentration that results in 50% activation or inhibition. Here is the method:
as §1, §2, §3

Take `Cc1cc(C(N)=O)nn1-c1ccc(Cc2ccc(C3CCN(C)C3)cc2)cc1` (single isomer, unassigned) [Example 5-1, 5-methyl-1-(4-(4-(1-methylpyrrolidin-3-yl)benzyl)phenyl)-1H-pyrazole-3-carboxamide]: the AC50 in assay [1] is 0.295 µM; in assay [2] (Homo sapiens, 0.5 h), 1.32 µM.

Take `Cc1cc(C(N)=O)nn1-c1ccc(Cc2ccc(C3CCN(C)C3)cc2)cc1` (single isomer, unassigned) [Example 5-2, 5-methyl-1-(4-(4-(1-methylpyrrolidin-3-yl)benzyl)phenyl)-1H-pyrazole-3-carboxamide]: the half-maximal activity concentration (AC50) in assay [1] was 0.792 µM; in assay [2] it was 2.5 µM.

With `Cc1nc(C(N)=O)nn1-c1ccc(C(C)(C)c2ccc(Cl)cc2)cc1` [Example 1, 1-(4-(2-(4-chlorophenyl)propan-2-yl)phenyl)-5-methyl-1H-1,2,4-triazole-3-carboxamide], the AC50 in assay [1] (Homo sapiens, 0.5 h) was determined as 0.576 µM; in assay [2] (Homo sapiens, 0.5 h), 1.55 µM.

As to `Cc1cc(C(N)=O)nn1-c1ccc(Cc2ccc3c(c2)OCc2ccccc2-3)cc1` [Example 2, 1-(4-((6H-benzo[c]chromen-3-yl)methyl)phenyl)-5-methyl-1H-pyrazole-3-carboxamide], the half-maximal activity concentration (AC50) is 0.137 µM in assay [1] (Homo sapiens, 0.5 h) and 0.326 µM in assay [2] (Homo sapiens, 0.5 h).

On to `Cc1cc(C(N)=O)nn1-c1ccc(Cc2ccc(-c3ccc(CN4CCCC4)cc3)cc2)cc1` [Example 3-1, 5-methyl-1-(4-((4′-(pyrrolidin-1-ylmethyl)-[1,1′-biphenyl]-4-yl)methyl)phenyl)-1H-pyrazole-3-carboxamide], for which the AC50 in assay [1] (Homo sapiens, 0.5 h) was 0.036 µM; in assay [2] (Homo sapiens, 0.5 h) it was 0.135 µM.

Turning to `CCN(CC)Cc1ccc(-c2ccc(Cc3ccc(-n4nc(C(N)=O)cc4C)cc3)cc2)cc1` [Example 3-2, 1-(4-((4′-((diethylamino)methyl)-[1,1′-biphenyl]-4-yl)methyl)phenyl)-5-methyl-1H-pyrazole-3-carboxamide], the AC50 in assay [1] (Homo sapiens, 0.5 h) turned out to be 0.236 µM; in assay [2] (Homo sapiens, 0.5 h), 0.341 µM.

Consider `Cc1cc(C(N)=O)nn1-c1ccc(Cc2ccc(-c3ccc4c(c3)CCN(C)C4)cc2)cc1` [Example 3-3, 5-methyl-1-(4-(4-(2-methyl-1,2,3,4-tetrahydroisoquinolin-6-yl)benzyl)phenyl)-1H-pyrazole-3-carboxamide], for which the AC50 in assay [1] (Homo sapiens, 0.5 h) was determined as 0.04 µM; in assay [2] (Homo sapiens, 0.5 h), 0.109 µM.

Take `Cc1cc(C(N)=O)nn1-c1ccc(Cc2ccc(-c3ccc4c(c3)CNC4)cc2)cc1` [Example 3-4, 1-(4-(4-(isoindolin-5-yl)benzyl)phenyl)-5-methyl-1H-pyrazole-3-carboxamide]: the AC50 is 0.075 µM in assay [1] (Homo sapiens, 0.5 h) and 0.268 µM in assay [2] (Homo sapiens, 0.5 h).

With `Cc1cc(C(N)=O)nn1-c1ccc(Cc2ccc(-c3ccncc3)cc2)cc1` [Example 3-5, 5-methyl-1-(4-(4-(pyridin-4-yl)benzyl)phenyl)-1H-pyrazole-3-carboxamide], the AC50 in assay [1] (Homo sapiens, 0.5 h) was determined as 0.061 µM; in assay [2] (Homo sapiens, 0.5 h), 0.156 µM.

Consider `Cc1cc(C(N)=O)nn1-c1ccc(Cc2ccc(-c3ccc(S(C)(=O)=O)cc3)cc2)cc1` [Example 3-6, 5-methyl-1-(4-((4′-(methylsulfonyl)-[1,1′-biphenyl]-4-yl)methyl)phenyl)-1H-pyrazole-3-carboxamide], for which the AC50 was 0.028 µM in assay [1] (Homo sapiens, 0.5 h) and 0.066 µM in assay [2] (Homo sapiens, 0.5 h).

With `Cc1cc(C(N)=O)nn1-c1ccc(Cc2ccc(-c3ccccc3)cc2)cc1` [Example 3-8, 1-(4-([1,1′-biphenyl]-4-ylmethyl)phenyl)-5-methyl-1H-pyrazole-3-carboxamide], the half-maximal activity concentration (AC50) was found to be 0.383 µM in assay [1] (Homo sapiens, 0.5 h) and 0.96 µM in assay [2] (Homo sapiens, 0.5 h).

For `Cc1nnc(-c2ccc(-c3ccc(Cc4ccc(-n5nc(C(N)=O)cc5C)cc4)cc3)cc2)o1` [Example 3-9, 5-methyl-1-(4-((4′-(5-methyl-1,3,4-oxadiazol-2-yl)-[1,1′-biphenyl]-4-yl)methyl)phenyl)-1H-pyrazole-3-carboxamide], the concentration at half-maximal activity (AC50) amounted to 0.029 µM in assay [1] (Homo sapiens, 0.5 h) and 0.063 µM in assay [2] (Homo sapiens, 0.5 h).

For the compound `Cc1cc(C(N)=O)nn1-c1ccc(Cc2ccc(-c3cccnc3)cc2)cc1` [Example 3-10, 5-methyl-1-(4-(4-(pyridin-3-yl)benzyl)phenyl)-1H-pyrazole-3-carboxamide], the AC50 in assay [1] (Homo sapiens, 0.5 h) worked out at 0.11 µM; in assay [2] (Homo sapiens, 0.5 h), 0.497 µM.

As to `Cc1cc(C(N)=O)nn1-c1ccc(Cc2ccc(C3=CCN(C(=O)CN(C)C)CC3)cc2)cc1` [Example 3-11, 1-(4-(4-(1-(dimethylglycyl)-1,2,3,6-tetrahydropyridin-4-yl)benzyl)phenyl)-5-methyl-1H-pyrazole-3-carboxamide], the AC50 in assay [1] (Homo sapiens, 0.5 h) turned out to be 0.132 µM; in assay [2] (Homo sapiens, 0.5 h), 0.504 µM.

As to `Cc1cc(C(N)=O)nn1-c1ccc(Cc2ccc(-c3ccc(CN4CCN(C)CC4)cc3)cc2)cc1` [Example 3-12, 5-methyl-1-(4-((4′-((4-methylpiperazin-1-yl)methyl)-[1,1′-biphenyl]-4-yl)methyl)phenyl)-1H-pyrazole-3-carboxamide], the half-maximal activity concentration (AC50) in assay [1] (Homo sapiens, 0.5 h) was determined as 0.036 µM; in assay [2] (Homo sapiens, 0.5 h), 0.122 µM.

In the case of `Cc1cc(C(N)=O)nn1-c1ccc(Cc2ccc(-c3ccc4c(c3)CN(C)C4)cc2)cc1` [Example 3-13, 5-methyl-1-(4-(4-(2-methylisoindolin-5-yl)benzyl)phenyl)-1H-pyrazole-3-carboxamide], the AC50 in assay [1] (Homo sapiens, 0.5 h) is 0.057 µM; in assay [2] (Homo sapiens, 0.5 h), 0.167 µM.

As for `Cc1cc(C(N)=O)nn1-c1ccc(Cc2ccc(-c3ccc4c(c3)CCNC4)cc2)cc1` [Example 3-14, 5-methyl-1-(4-(4-(1,2,3,4-tetrahydroisoquinolin-6-yl)benzyl)phenyl)-1H-pyrazole-3-carboxamide], the half-maximal activity concentration (AC50) amounted to 0.053 µM in assay [1] (Homo sapiens, 0.5 h) and 0.161 µM in assay [2] (Homo sapiens, 0.5 h).

Turning to `Cc1cc(C(N)=O)nn1-c1ccc(Cc2ccc(C3=CCN(C)CC3)cc2)cc1` [Example 3-15, 5-methyl-1-(4-(4-(1-methyl-1,2,3,6-tetrahydropyridin-4-yl)benzyl)phenyl)-1H-pyrazole-3-carboxamide], the concentration at half-maximal activity (AC50) worked out at 0.031 µM in assay [1] (Homo sapiens, 0.5 h) and 0.083 µM in assay [2] (Homo sapiens, 0.5 h).

`Cc1cc(C(N)=O)nn1-c1ccc(Cc2ccc(C3CCN(C)CC3)cc2)cc1` [Example 4, 5-methyl-1-(4-(4-(1-methylpiperidin-4-yl)benzyl)phenyl)-1H-pyrazole-3-carboxamide]: the half-maximal activity concentration (AC50) was 0.325 µM in assay [1] (Homo sapiens, 0.5 h) and 1.22 µM in assay [2] (Homo sapiens, 0.5 h).

For the compound `Cc1cc(C(N)=O)nn1-c1ccc(Cc2ccc(-c3ccc(CN(C)C)nc3)cc2)cc1` [Example 5-3, 1-(4-(4-(6-((dimethylamino)methyl)pyridin-3-yl)benzyl)phenyl)-5-methyl-1H-pyrazole-3-carboxamide], the AC50 in assay [1] (Homo sapiens, 0.5 h) was 0.136 µM; in assay [2] (Homo sapiens, 0.5 h) it was 0.425 µM.

On to `Cc1cc(C(N)=O)nn1-c1ccc(Cc2ccc(-c3ccnc(CN(C)C)c3)cc2)cc1` [Example 5-4, 1-(4-(4-(2-((dimethylamino)methyl)pyridin-4-yl)benzyl)phenyl)-5-methyl-1H-pyrazole-3-carboxamide], for which the concentration at half-maximal activity (AC50) came out at 0.16 µM in assay [1] (Homo sapiens, 0.5 h) and 0.789 µM in assay [2] (Homo sapiens, 0.5 h).

Turning to `Cc1cc(C(N)=O)nn1-c1ccc(Cc2ccc(-c3ccc(CN4CCCC4)nc3)cc2)cc1` [Example 5-5, 5-methyl-1-(4-(4-(6-(pyrrolidin-1-ylmethyl)pyridin-3-yl)benzyl)phenyl)-1H-pyrazole-3-carboxamide], the half-maximal activity concentration (AC50) in assay [1] (Homo sapiens, 0.5 h) stood at 0.152 µM; in assay [2] (Homo sapiens, 0.5 h), 0.426 µM.

Regarding `Cc1cc(C(N)=O)nn1-c1ccc(Cc2ccc(-c3cncc(CN(C)C)c3)cc2)cc1` [Example 5-6, 1-(4-(4-(5-((dimethylamino)methyl)pyridin-3-yl)benzyl)phenyl)-5-methyl-1H-pyrazole-3-carboxamide], the AC50 in assay [1] (Homo sapiens, 0.5 h) was determined as 0.312 µM; in assay [2] (Homo sapiens, 0.5 h), 1.04 µM.

For `Cc1cc(C(N)=O)nn1-c1ccc(Cc2ccc(C3=CCCN(C)CC3)cc2)cc1` [Example 5-7, 5-methyl-1-(4-(4-(1-methyl-2,3,6,7-tetrahydro-1H-azepin-4-yl)benzyl)phenyl)-1H-pyrazole-3-carboxamide], the AC50 stood at 0.412 µM in assay [1] (Homo sapiens, 0.5 h) and 1.37 µM in assay [2] (Homo sapiens, 0.5 h).

As for `Cc1nc(C(N)=O)nn1-c1ccc(Cc2ccc(-c3ccc(O[C@H]4CCN(C)C4)cc3)cc2)cc1` [Example 62, (S)-5-methyl-1-(4-((4′-((1-methylpyrrolidin-3-yl)oxy)-[1,1′-biphenyl]-4-yl)methyl)phenyl)-1H-1,2,4-triazole-3-carboxamide], the AC50 in assay [1] (Homo sapiens, 0.5 h) was 0.02 µM.

Turning to `Cc1nc(C(N)=O)nn1-c1ccc(Cc2ccc(-c3ccc(O[C@@H]4CCN(C)C4)cc3)cc2)cc1` [Example 63, (R)-5-methyl-1-(4-((4′-((1-methylpyrrolidin-3-yl)oxy)-[1,1′-biphenyl]-4-yl)methyl)phenyl)-1H-1,2,4-triazole-3-carboxamide], the AC50 in assay [1] (Homo sapiens, 0.5 h) was found to be 0.011 µM.

Turning to `Cc1nc(C(N)=O)nn1-c1ccc(Cc2ccc(-c3ccc(C(C)(C)NCC(C)(C)O)cc3)cc2)cc1` [Example 64, 1-(4-((4′-(2-((2-hydroxy-2-methylpropyl)amino)propan-2-yl)-[1,1′-biphenyl]-4-yl)methyl)phenyl)-5-methyl-1H-1,2,4-triazole-3-carboxamide], in assay [1] (Homo sapiens, 0.5 h), the AC50 turned out to be 0.062 µM.

As a reminder, the AC50 is the midpoint of the concentration-response curve, whichever way the signal moves.
